Reference: paper PMC12730222, “The Adaptable Binding Cleft of RmuAP1, a Pepsin-like Peptidase from Rhodotorula mucilaginosa, Enables the Enzyme to Degrade Immunogenic Peptides Derived from Gluten” (Biomolecules, 2025)
Non-standard residues stand in square brackets, D forms with d. Residues, ends and D or L forms follow the SMILES beside them. *: point of attachment. Sta = CC(C)C[C@H](N)[C@@H](O)CC(=O)O; Isovaleryl = CC(C)CC(=O)*

Target: T1, RmuAP1 (Rhodotorula mucilaginosa, UniProt A0A9P6W3R0)
T1 construct: gene PEP1_2; mature catalytic domain (printed as 300 residues, though residue Ile304 is named), pre- and propeptide removed, C-terminal His6; secreted by Yarrowia lipolytica Po1g
T1 sequence (A0A9P6W3R0 96-425): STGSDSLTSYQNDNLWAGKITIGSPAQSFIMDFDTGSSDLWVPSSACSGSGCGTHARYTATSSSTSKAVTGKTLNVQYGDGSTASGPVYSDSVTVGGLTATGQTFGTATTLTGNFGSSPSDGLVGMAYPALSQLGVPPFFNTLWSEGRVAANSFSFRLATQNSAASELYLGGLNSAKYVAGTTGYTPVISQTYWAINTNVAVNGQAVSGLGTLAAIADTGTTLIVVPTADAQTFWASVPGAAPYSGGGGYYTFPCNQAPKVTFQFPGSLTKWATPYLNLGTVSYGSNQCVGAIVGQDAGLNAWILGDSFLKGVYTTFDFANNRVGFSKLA
Experiment: X-ray crystal structure of the complex, […] Å
Type: binding
Settings: crystallised at pH 6.5, 2 M NaCl, 20 °C; active-site cleft, subsites S4 to S2'

With `CC(C)CC(=O)N[C@H](C(=O)N[C@H](C(=O)N[C@@H](CC(C)C)[C@@H](O)CC(=O)N[C@@H](C)C(=O)N[C@@H](CC(C)C)[C@@H](O)CC(=O)O)C(C)C)C(C)C` [pepstatin A] (Isovaleryl-VV[Sta]A[Sta]-OH) the “X-ray crystal structure of the complex, 1.78 Å” value was “The crystal structure of the RmuAP1 complexed with pepstatin A was determined”.
